{
  "source": "patent US8150136B2",
  "about": "“Image based quantitation of molecular translocation” (Amnis Corporation, priority 2005, dated 2012)",
  "test_system": "NF-κB nuclear translocation in THP-1 cells",
  "assay": "LPS-induced nuclear translocation of NF-κB in THP-1 cells, multispectral imaging flow cytometry (ImageStream), NF-κB/7-AAD Similarity",
  "format": "cell-based, human",
  "experimental": "Untreated (a) and LPS treated (b) THP-1 cells were prepared as described in FIG. 4 and imaged in flow using the ImageStream 100 platform. […] Each gated population has an associated image gallery that can be visually inspected. The image galleries here display the NF-κB image adjacent to a composite image (green NF-κB/red 7-ADD) for each object within a given population.\nIn order to quantitate the extent of NF-κB nuclear translocation in A-549 cells treated with TNF-α/IL-β, the degree of pixel intensity between the NF-κB and nuclear images of cell within a masked region of interest was analyzed. The NF-κB image of a cell with a high degree of translocation will look qualitatively similar to the nuclear image of that cell, resulting in a high degree of correlation between the two images. In contrast, the NF-κB image of a cell without any translocation will have little signal in the nuclear space, resulting in an inverse correlation with the nuclear image. […] Two features were calculated, the correlation coefficient (ρ) and, in this case, similarity is calculated as a logarithmic transformation of ρ, which features are represented by the following formula, respectively: ρ(X,Y)=Cov(X,Y)/(σX σY) Similarity=ln(1+ρ)/(1−ρ) As set forth herein, ρ measures the degree to which the spatial distribution of intensities over two separate images is correlated, with a range from −1 (inverse correlation) to +1 (complete correlation). Here, similarity values range from −∞ to +∞, allowing standard statistical comparisons (means and standard deviations) between groups to be made. Histogram overlays of NF-κB/7-AAD correlation and similarity allows the differentiation of untreated (green) A-549 cells from TNF-α/IL-1β treated (red) A-549 cells. As described herein, the fidelity of these classifiers can be validated by inspection of the image galleries of the cells. Mask Determination\nBy way of background and […], NF-κB resides predominantly in the cytoplasm in resting cells. Activating treatments (e.g., IL-1β/TNF-α or LPS) induce NF-κB translocation into the nucleus in responsive cell types. Thus, the ratio of nuclear to cytoplasmic NF-κB increases with LPS treatment. Similar to the A-549 cells, NF-κB is translocated from the cytoplasm to the nucleus when the non-adherent human monocyte cell line, THP-1, is exposed to lipopolysaccharide (LPS). […] A nuclear and NF-κB pixel signal correlation analysis CCF was used to quantitate the difference between untranslocated NF-κB and NF-κB translocated to the cell nucleus. The CCF distinguished location-specific (nuclear and cytoplasmic) quantitation of NF-κB to distinguish LPS-treated from untreated THP-1 cells. Thus, the methods of the present disclosure may also be used with non-adherent cells and cell lines.\nHuman monocyte cell line THP-1, obtained from ATCC (Rockville, Md.), were maintained in RPMI 1640 (Gibco, Grand Island, N.Y.) containing 5% fetal bovine serum, 1 mM sodium pyruvate (Mediatech, Herndon, Va.), 100 μM nonessential amino acids, 100 U/ml penicillin, 100 μg/ml streptomycin, and 2 mM L-glutamine (BioWhittaker, Walkersville, Md.) in 5% CO2 atmosphere at 37° C. The density of exponentially growing cells was less than 3×10^5 cells per ml at the time of all treatments. To induce NF-κB translocation into the nucleus from the cytoplasm, cells were treated for 1 hr with LPS.\nThe following is the experimental procedure for LPS-induced Nuclear Translocation of NF-κB in THP-1 cells. […]",
  "data": [
    {"substance": "Lipopolysaccharide [LPS]", "values": [
      {"measurement": "NF-κB/7-AAD Similarity value (median similarity value) of translocated cells", "setting": "LPS treated THP-1 cells, 'High Similarity' (translocated) gated population, untreated: 2.98 +/−0.35", "value": "3.35 +/−0.48"},
      {"measurement": "NF-κB/7-AAD Similarity value of untranslocated cells", "setting": "LPS treated THP-1 cells, 'Low Similarity' (untranslocated) gated population, untreated: −1.36 +/−0.84", "value": "−0.76 +/−0.64"},
      {"measurement": "percentage of Medium Similarity cells", "setting": "LPS treated THP-1 cells, diffuse NF-κB staining pattern, untreated 3.6%", "value": 27.6, "unit": "%"},
      {"measurement": "percentage of NF-κB-translocated cells", "setting": "LPS treated THP-1 cells, untreated 0.71%", "value": 44.6, "unit": "%"},
      {"measurement": "nuclear localization of NF-κB by CCF, treated versus untreated cells", "setting": "THP-1 cells, LPS-treated vs untreated", "value": "a quantifiable difference in the nuclear localization NF-κB is demonstrated"}
    ]}
  ]
}
